Active and inactive are the calls of the source. The rule behind the calls is not given here.
System: GENE-TOX genotoxicity assays, various organisms and cells
Test: GENE-TOX mutagenicity studies
Settings: for call: Assay Type: In vivo carcinogenicity studies
[1] = Species/Cell Type: Bacillus subtilis (H17 vs M45), Assay Type: Rec-assay, spot test, DNA effects (bacterial DNA repair), Assay Code: REWT, Evaluation Type: Evaluation A (Pre-1980)
[2] = Species/Cell Type: Escherichia coli polA (W3110 vs P3478), Assay Type: Rec-assay, DNA effects (bacterial DNA repair), Assay Code: RE2-, Evaluation Type: Evaluation A (Pre-1980)
[3] = Species/Cell Type: Neurospora crassa, Assay Type: Aneuploidy, chromosome aberrations, Assay Code: NEN-, Evaluation Type: Evaluation A (Pre-1980)
[4] = Species/Cell Type: Nonhuman, Assay Code: CCGT, Evaluation Type: Evaluation A (Pre-1980)
[5] = Species/Cell Type: Saccharomyces cerevisiae, Assay Type: Mitotic recombination or gene conversion, Assay Code: YEC+, Evaluation Type: Evaluation A (Pre-1980)
[6] = Species/Cell Type: Salmonella typhimurium (one or more of the five standard strains: TA98, TA100, TA1535, TA1537, and TA1538), Assay Type: Histidine reverse gene mutation, Ames assay, Assay Code: SAL-, Evaluation Type: Evaluation A (Pre-1980)
[7] = Species/Cell Type: Syrian hamster embryo (SHE) cells, Assay Type: Cell transformation, clonal assay, Assay Code: CTC-, Evaluation Type: Evaluation A (Pre-1980)
[8] = Species/Cell Type: Mammalian polychromatic erythrocytes, Assay Type: Micronucleus test, chromosome aberrations, Assay Code: MNTT, Evaluation Type: Evaluation B (Post-1980)
[9] = Species/Cell Type: Salmonella typhimurium (one or more of the five standard strains: TA98, TA100, TA1535, TA1537, and TA1538), Assay Type: Histidine reverse gene mutation, Ames assay, Assay Code: SALT, Evaluation Type: Evaluation A (Pre-1980)
[10] = Species/Cell Type: Salmonella typhimurium (one or more of the five standard strains: TA98, TA100, TA1535, TA1537, and TA1538), Assay Type: Histidine reverse gene mutation, Ames assay, Assay Code: SAL+, Evaluation Type: Evaluation A (Pre-1980)
[11] = Species/Cell Type: Nonhuman, Assay Code: CCG+L, Evaluation Type: Evaluation A (Pre-1980)
[12] = Species/Cell Type: Nonhuman, Assay Code: CCG+, Evaluation Type: Evaluation A (Pre-1980)
[13] = Species/Cell Type: Nonhuman, Assay Type: Sister-chromatid exchange (SCE) in vitro, Assay Code: SC2+D, Dose Response: With dose response, Evaluation Type: Evaluation A (Pre-1980)

CS(C)=O
mutagenic call (Species/Cell Type: Aspergillus nidulans, Assay Type: Aneuploidy, chromosome aberrations, Assay Code: ASN+, Evaluation Type: Evaluation A (Pre-1980)): active; positive
mutagenic call (Species/Cell Type: Aspergillus nidulans, Assay Type: Mitotic recombination, Assay Code: ASGT, Evaluation Type: Evaluation A (Pre-1980)): no conclusion
mutagenic call [1]: no conclusion
mutagenic call (Species/Cell Type: Drosophila melanogaster, Assay Type: Aneuploidy, whole sex chromosome loss, chromosome aberrations, Assay Code: DAC-M, Evaluation Type: Evaluation A (Pre-1980)): inactive; negative
mutagenic call (Species/Cell Type: Drosophila melanogaster, Assay Type: Sex-linked recessive lethal gene mutation, Assay Code: SRL-, Evaluation Type: Evaluation A (Pre-1980)): inactive; negative
mutagenic call (Species/Cell Type: Drosophila melanogaster, Sex: Male, Assay Type: Heritable translocation test, chromosome aberrations, Assay Code: DHTT, Evaluation Type: Evaluation A (Pre-1980)): no conclusion
mutagenic call [2]: inactive; negative
mutagenic call (Species/Cell Type: Escherichia coli polA (W3119 vs P3478), Assay Type: Rec-assay, DNA effects (bacterial DNA repair), Assay Code: RE1T, Evaluation Type: Evaluation A (Pre-1980)): no conclusion
mutagenic call (Species/Cell Type: Fischer rat embryo (RLV/1706) cells, Assay Type: Cell transformation, viral enhanced, Assay Code: CTR-, Evaluation Type: Evaluation A (Pre-1980)): inactive; negative
mutagenic call (Species/Cell Type: Human lymphocytes, Assay Type: Sister-chromatid exchange (SCE) in vitro, Assay Code: SCLT, Evaluation Type: Evaluation B (Post-1980)): no conclusion
mutagenic call (Species/Cell Type: Human, Assay Type: Sister-chromatid exchange (SCE) in vitro, Assay Code: SC1T, Evaluation Type: Evaluation B (Post-1980)): no conclusion
mutagenic call (Species/Cell Type: Mouse embryo (AKR/ME) cells, Assay Type: Cell transformation, Assay Code: CTK-, Evaluation Type: Evaluation A (Pre-1980)): inactive; negative
mutagenic call [3]: inactive; negative
call [4]: no conclusion
mutagenic call (Species/Cell Type: Nonhuman, Assay Type: Sister-chromatid exchange (SCE) in vitro, Assay Code: SC2-, Evaluation Type: Evaluation A (Pre-1980)): inactive; negative
mutagenic call (Species/Cell Type: Nonhuman, Assay Type: Sister-chromatid exchange (SCE) in vivo, Assay Code: SC3+, Evaluation Type: Evaluation B (Post-1980)): active; positive
mutagenic call (Species/Cell Type: Rodents, Sex: Male, Assay Type: Dominant lethal test, Assay Code: DLTT, Evaluation Type: Evaluation A (Pre-1980)): no conclusion
mutagenic call [5]: active; positive
mutagenic call [6]: inactive; negative
mutagenic call (Species/Cell Type: Salmonella typhimurium, Assay Type: Forward and reverse gene mutation, host-mediated assay, Assay Code: HMA-, Evaluation Type: Evaluation A (Pre-1980)): inactive; negative
mutagenic call [7]: inactive; negative

NCl
mutagenic call [8]: no conclusion

Cc1cc2ccc(F)cc2c2ccc3ccccc3c12
mutagenic call [9]: no conclusion

CCN(CC)CCNc1ccc(COC(=O)c2ccco2)c2sc3ccccc3c(=O)c12
mutagenic call [10]: active; positive

O=[N+]([O-])c1ccc(N=Nc2ccccc2)cc1
mutagenic call [10]: active; positive

BrBr
mutagenic call (Species/Cell Type: Allium cepa, Assay Type: Chromosome aberrations, Assay Code: ALC+, Evaluation Type: Evaluation A (Pre-1980)): active; positive

C1=CC2OC2c2cc3ccc4cccc5ccc(c21)c3c45 (stereo not drawn)
mutagenic call (Species/Cell Type: Chinese hamster lung (V79) cells, Assay Type: Forward gene mutation at the HPRT or ouabain locus, Assay Code: V79-, Evaluation Type: Evaluation A (Pre-1980)): inactive; negative
call [11]: active; positive
mutagenic call (Species/Cell Type: Nonhuman, Assay Type: Sister-chromatid exchange (SCE) in vitro, Assay Code: SC2+D, Dose Response: With dose response, Evaluation Type: Evaluation B (Post-1980)): active; positive
mutagenic call [10]: active; positive

O=C(NO)c1cc2ccccc2[nH]1
mutagenic call [10]: active; positive

O=S(=O)(O)c1ccc(N=Nc2ccc(O)c3ccccc23)cc1
mutagenic call [1]: no conclusion
mutagenic call (Species/Cell Type: Bacillus subtilis (H17 vs M45T), Assay Type: Rec-assay, spot test, DNA effects (bacterial DNA repair), Assay Code: REXT, Evaluation Type: Evaluation A (Pre-1980)): no conclusion
mutagenic call [6]: inactive; negative

CCCCN(N=O)C(N)=O
mutagenic call (Species/Cell Type: Arabidopsis species, Assay Type: Gene mutation, Assay Code: ARM+D, Dose Response: With dose response, Evaluation Type: Evaluation A (Pre-1980)): active; positive
mutagenic call (Species/Cell Type: Chinese hamster ovary (CHO) cells, Assay Type: Forward gene mutation at the HPRT locus, Assay Code: CHO+D, Dose Response: With dose response, Evaluation Type: Evaluation A (Pre-1980)): active; positive
mutagenic call (Species/Cell Type: Human diploid fibroblasts, Assay Type: Unscheduled DNA synthesis (UDS) in vitro, DNA effects, Assay Code: UDH-, Evaluation Type: Evaluation A (Pre-1980)): inactive; negative
mutagenic call (Species/Cell Type: Nonhuman, Assay Type: Chromosome aberrations in vitro, Assay Code: CY&+D, Dose Response: With dose response, Evaluation Type: Evaluation A (Pre-1980)): active; positive
call [12]: active; positive
mutagenic call [13]: active; positive
mutagenic call (Species/Cell Type: Rodents, Sex: Male, Assay Type: Dominant lethal test, Assay Code: DLT-, Evaluation Type: Evaluation A (Pre-1980)): inactive; negative
mutagenic call [5]: active; positive
mutagenic call (Species/Cell Type: Salmonella typhimurium, Escherichia coli, Serratia marcesens, Assay Type: Forward and reverse gene mutation, host-mediated assay, Assay Code: HMN+, Evaluation Type: Evaluation A (Pre-1980)): active; positive

Nc1ccccc1
mutagenic call (Species/Cell Type: Allium cepa, Assay Type: Chromosome aberrations, Assay Code: ALCT, Evaluation Type: Evaluation A (Pre-1980)): no conclusion
mutagenic call [2]: inactive; negative
mutagenic call (Species/Cell Type: Escherichia coli polA (W3119 vs P3478), Assay Type: Rec-assay, DNA effects (bacterial DNA repair), Assay Code: RE1+, Evaluation Type: Evaluation A (Pre-1980)): active; positive
mutagenic call (Species/Cell Type: Fischer rat embryo (RLV/1706) cells, Assay Type: Cell transformation, viral enhanced, Assay Code: CTR+, Evaluation Type: Evaluation A (Pre-1980)): active; positive
mutagenic call (Species/Cell Type: Human lymphocytes, Assay Type: Sister-chromatid exchange (SCE) in vitro, Assay Code: SCL+, Evaluation Type: Evaluation B (Post-1980)): active; positive
mutagenic call (Species/Cell Type: Human, Assay Type: Sister-chromatid exchange (SCE) in vitro, Assay Code: SC1+, Evaluation Type: Evaluation B (Post-1980)): active; positive
mutagenic call [8]: no conclusion
mutagenic call (Species/Cell Type: Mouse (BALB/c-3T3) cells, Assay Type: Cell transformation, Assay Code: CTB+D, Dose Response: With dose response, Evaluation Type: Evaluation A (Pre-1980)): active; positive
mutagenic call (Species/Cell Type: Mouse, Sex: Male, Assay Type: Sperm morphology, Assay Code: SPI-, Evaluation Type: Evaluation A (Pre-1980)): inactive; negative
call [11]: active; positive
call [4]: no conclusion
mutagenic call [13]: active; positive
mutagenic call (Species/Cell Type: Nonhuman, Assay Type: Sister-chromatid exchange (SCE) in vivo, Assay Code: SC3+D, Dose Response: With dose response, Evaluation Type: Evaluation B (Post-1980)): active; positive
mutagenic call (Species/Cell Type: Saccharomyces cerevisiae, Assay Type: Mitotic recombination or gene conversion, Assay Code: YEH-, Evaluation Type: Evaluation A (Pre-1980)): inactive; negative
mutagenic call [6]: inactive; negative
mutagenic call [7]: inactive; negative

Nc1ccc2c(n1)[nH]c1ccccc12
mutagenic call (Species/Cell Type: Human, Assay Type: Sister-chromatid exchange (SCE) in vitro, Assay Code: SC1+D*, Activation: With metabolic activation, Dose Response: With dose response, Evaluation Type: Evaluation B (Post-1980)): active; positive

CCSCCC(N)C(=O)O (stereo not drawn)
mutagenic call [3]: inactive; negative
call [12]: active; positive
mutagenic call (Species/Cell Type: Nonhuman, Assay Type: Sister-chromatid exchange (SCE) in vitro, Assay Code: SC2+, Evaluation Type: Evaluation B (Post-1980)): active; positive

O=S(=O)(O)c1ccc(N=Nc2ccc(N=Nc3c(O)c(S(=O)(=O)O)cc4cc(S(=O)(=O)O)ccc34)c(S(=O)(=O)O)c2)cc1
mutagenic call [9]: no conclusion

O=C1c2c(O)cccc2Cc2cccc(O)c21
mutagenic call (Species/Cell Type: Mammalian polychromatic erythrocytes, Assay Type: Micronucleus test, chromosome aberrations, Assay Code: MNT-, Evaluation Type: Evaluation B (Post-1980)): inactive; negative
mutagenic call (Species/Cell Type: Saccharomyces cerevisiae, Assay Type: Mitotic recombination or gene conversion, Assay Code: YECT, Evaluation Type: Evaluation A (Pre-1980)): no conclusion

Cc1ccc2oc(=O)ccc2c1
mutagenic call (Species/Cell Type: Allium cepa, Assay Type: Chromosome aberrations, Assay Code: ALC+D, Dose Response: With dose response, Evaluation Type: Evaluation A (Pre-1980)): active; positive
mutagenic call (Species/Cell Type: Nonhuman, Assay Type: Chromosome aberrations in vitro, Assay Code: CY&+, Evaluation Type: Evaluation A (Pre-1980)): active; positive

Source: PubChem BioAssay AID1259408 (Genetic Toxicology Data Bank (GENE-TOX), 2018)
